A word on the IC50: it is the concentration at which inhibition is half-maximal. In general, Ki refers to a measure of affinity in units of concentration, obtained from inhibition or displacement. A higher Ki goes with weaker binding. A word on the pIC50: it is the negative decadic logarithm of the IC50, by convention in mol/L.

Drawing on PMC10544575, “Inhibitory mechanism of vortioxetine on CYP450 enzymes in human and rat liver microsomes” (Frontiers in Pharmacology, 2023), this text covers IC50, Inhibition type and Ki for 1 compound.

One data set relates to CYP2C-3. The data set can be described thus: IC50 of vortioxetine on CYP2C-3 (mephenytoin) in RLMs. The note with it: rat, rat liver microsomes, probe mephenytoin. Format: in vitro ADME. Here is the method: (§1) The components of the incubation system were as follows: 0.20 mg/mL HLMs or 0.20 mg/mL RLMs, 0.1 M Tris-HCl, vortioxetine, and the probe substrates of each enzyme. In the study of Km’s (Michaelis–Menten constant) experiment, midazolam (1, 2, 5, 10, 20, 50 and 100 μM in HLMs and RLMs) corresponded to CYP3A4/3A; bupropion (10, 20, 50, 100, 200, 500, 1,000 and 2000 μM in HLMs; 1, 2, 5, 10, 20, 50, 100 and 200 μM in RLMs) corresponded to CYP2B6/2B; amodiaquine (5, 10, 20, 50, 100 and 200 μM in HLMs; 10, 20, 50, 100, 200, 500 μM in RLMs) corresponded to CYP2C8/CYP2C-1; losartan (1, 2, 5, 10, 20, 50, 100, 200 μM in HLMs; 10, 20, 50, 100, 200, 500 and 1,000 μM in RLMs) corresponded to CYP2C9/CYP2C-2; mephenytoin (20, 50, 100, 200, 500 and 1,000 μM in HLMs; 5, 10, 20, 50, 100, 200, 500 and 1,000 μM in RLMs) corresponded to CYP2C19/CYP2C-3; and dextromethorphan (1, 2, 5, 10, 20, 50 and 100 μM in HLMs and RLMs) corresponded to CYP2D6/CYP2D. […]
(§2) All experiments results were detected by UPLC-MS/MS, which equipped with a Waters Acquity UPLC system (Milford, MA, United States) and a Waters Xevo TQ-S triple quadrupole tandem mass spectrometer with an electrospray ionization source (Milford, MA, United States). […]
(§3) IC50 values and enzyme kinetic parameters were calculated by Graphpad Prism 6.0 (GraphPad software Inc., CA, United States). […] Data for each experiment were expressed as mean ± SD (n = 3).
In general terms: Microsomes from liver hold many membrane-bound enzymes, among them those of drug oxidation.

The next data set deals with CYP2D. The data set can be described thus: Reversible inhibition kinetics (Lineweaver-Burk), CYP2D in RLMs. In kind it is in vitro ADME, rat. Here is the method:
as §1, §2, §3

The target in a further data set is T1, CYP2B6 (Homo sapiens, UniProt P20813).
T1 sequence (P20813 1-491): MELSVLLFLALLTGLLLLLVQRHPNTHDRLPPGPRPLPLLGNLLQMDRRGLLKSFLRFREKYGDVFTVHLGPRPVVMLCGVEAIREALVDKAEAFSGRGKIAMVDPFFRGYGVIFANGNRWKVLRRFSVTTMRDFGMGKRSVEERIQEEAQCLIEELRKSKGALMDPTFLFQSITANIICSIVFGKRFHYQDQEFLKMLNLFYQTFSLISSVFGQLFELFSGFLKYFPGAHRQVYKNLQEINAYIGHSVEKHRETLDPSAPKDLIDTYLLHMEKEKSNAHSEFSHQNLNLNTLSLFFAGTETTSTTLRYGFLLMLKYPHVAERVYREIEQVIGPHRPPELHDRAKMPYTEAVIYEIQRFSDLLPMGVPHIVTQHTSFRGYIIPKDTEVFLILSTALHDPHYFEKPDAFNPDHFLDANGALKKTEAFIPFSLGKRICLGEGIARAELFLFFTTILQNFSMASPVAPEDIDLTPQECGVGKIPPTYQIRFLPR
The data set can be described thus: IC50 of vortioxetine on CYP2B6 (bupropion) in HLMs. Also on record: 0.20 mg/mL HLMs; from tissue; host or cells: human liver microsomes. Format: in vitro ADME. Here is the method: as §1, §2, §3

pIC50: −log10 of the molar value. Where two headings read alike, the source gives them in different places.

On to `Cc1ccc(Sc2ccccc2N2CCNCC2)c(C)c1` [vortioxetine], for which the IC50 at 30 min was 20.3 µM in the data set on CYP2C-3 (RLMs 0.20 mg/mL, mephenytoin at Km, 37°C, 30 min, read-out: IC50) and more than 10 µM with CYP2C-3 (inhibitory effect (strength judged by IC50), RLMs). Further, the Inhibition type entry in the data set on CYP2D (dextromethorphan, Lineweaver-Burk plot) is “uncompetitive inhibition”. In addition, the inhibition constant (Ki) at 30 min in the data set on CYP2D (rat, rat liver microsomes, probe dextromethorphan) was found to be 101 µM. For the same compound, the pIC50 on CYP2B6 (HLMs 0.20 mg/mL, bupropion at Km, 37°C, 30 min, read-out: IC50) was 5.05; against CYP2B6 (inhibitory effect (strength judged by IC50), HLMs) it was 5.00 to 6.00.
